Source: PMC10493664, “The neurotrophic activities of brain‐derived neurotrophic factor are potentiated by binding with apigenin, a common flavone in vegetables, in stimulating the receptor signaling” (CNS Neuroscience & Therapeutics, 2023)

Target: T1, BDNF (Homo sapiens, UniProt P23560)
T1 construct: purchased human BDNF (Alomone Labs); noncovalent dimer; PDB 1B8M used only as docking model
T1 sequence (P23560 129-247): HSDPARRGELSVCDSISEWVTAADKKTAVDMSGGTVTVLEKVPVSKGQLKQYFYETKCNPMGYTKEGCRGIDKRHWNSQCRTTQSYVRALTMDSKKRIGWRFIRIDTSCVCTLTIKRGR
Assay: surface plasmon resonance (Biacore T100, BDNF on CM5 chip, steady-state affinity fit)
Assay type: binding

- Kd: ~14.2 µM
Compound: O=c1cc(-c2ccc(O)cc2)oc2cc(O)cc(O)c12 [apigenin]
